Paper PMC8466554, “Heteroaryl-Ethylenes as New Lead Compounds in the Fight against High Priority Bacterial Strains” (Antibiotics, 2021)
Values joined by “and” are separate entries in the source; they are usually repeats but may differ in a detail not shown here. Identical values can stand only once. Like-named read-outs stand apart in the source and are kept apart here.

How the values were obtained:
[1] = tested on: S.aureus USA300-CAMRSA; assay: MIC and MBC microtiter plate assay; assay type: cell-based, Staphylococcus aureus
[2] = tested on: Gram-positive and Gram-negative ATCC strains; assay: MIC and MBC, summary over Gram-positive and Gram-negative strains; assay type: cell-based; settings: by MBC/MIC ratio
[3] = tested on: E. coli ATCC25922; assay: MIC and MBC microtiter plate assay, also with different inocula; assay type: cell-based, Escherichia coli
[4] = tested on: E. faecalis ATCC29212-VSE; assay: MIC and MBC microtiter plate assay; assay type: cell-based
[5] = tested on: E. faecalis ATCC51299-VRE; assay: MIC and MBC microtiter plate assay, also with different inocula; assay type: cell-based
[6] = tested on: S.aureus ATCC29213-MSSA; assay: MIC and MBC microtiter plate assay; assay type: cell-based, Staphylococcus aureus
[7] = tested on: K. pneumoniae ATCC BAA-2814; assay: MIC microtiter plate assay; assay type: cell-based, Klebsiella pneumoniae; settings: K. pneumoniae ATCC BAA-2814 (MDR strain)
[8] = tested on: CaCo-2 cells; assay: MTT cytotoxicity assay; assay type: cell-based, human; settings: 24 h of incubation relative to untreated controls
Protocol: To evaluate the biological activity of the PBn series, compounds were screened for toxicity against the colon-rectal cancer cell line CaCo-2 (ATCC HTB-37). These human cancer cells were treated with solutions of the compounds at decreasing concentrations, starting from 100 μM up to 0.01 μM. The reference compound used for these assays was 5-Fluorouracil (5-Fu), a pyrimidine analogue belonging to the family of antimetabolite. […] Briefly, human colorectal adenocarcinoma cells (CaCo-2 HTB-37^TM Colorectal Adenocarcinoma Human, American Type Culture Collection, Manassas, VA, USA) were grown in Dulbecco’s MEM (DMEM) with 10% heat-inactivated fetal bovine serum, 2 mM L-Alanyl-L-Glutamine, penicillin-streptomycin (50 units-50 μg for mL) and incubated at 37 °C in a humidified atmosphere of 5% CO2, 95% air. CaCo-2 cells were plated in 96 well pates and incubated at 37 °C. The PBn series compounds and 5-FU were prepared as a 1 mM solution in 10 mL with 0.01% DMSO. Then, 24 h after plating, cells were treated with 20 μL of each solution. Untreated cells were used as controls. […] The results were read on a multiwell scanning spectrophotometer (AF2200 plate reader, Eppendorf, Milan, Italy), using a wavelength of 569 nm.

[9] = tested on: A. baumannii ATCC17978; assay: MIC and MBC microtiter plate assay, also with different inocula; assay type: cell-based, Acinetobacter baumannii; settings: A. baumannii ATCC17978
[10] = tested on: S.aureus ATCC12598-MSSA; assay: as above; assay type: cell-based, Staphylococcus aureus
[11] = tested on: K. pneumoniae ATCC700603; assay: MIC microtiter plate assay; assay type: cell-based, Klebsiella pneumoniae
[12] = tested on: P. aeruginosa ATCC27853; assay: MIC microtiter plate assay; assay type: cell-based, Pseudomonas aeruginosa
[13] = tested on: S.aureus Mu50-VISA; assay: MIC and MBC microtiter plate assay; assay type: cell-based, Staphylococcus aureus
[14] = tested on: Gram-positive control strains; assay: MIC and MBC, summary over Gram-positive control strains; assay type: cell-based, S. aureus and Enterococcus spp.; settings: over the Gram-positive control strains (S. aureus and Enterococcus spp.)
[15] = E. faecalis ATCC51299-VRE, value in brackets
[16] = E. faecalis ATCC51299, inoculum 1.00101 (1 × 10^1 CFU/mL)
[17] = E. faecalis ATCC51299, inoculum 1.00102 (1 × 10^2 CFU/mL)
[18] = E. faecalis ATCC51299, inoculum 1.00103 (1 × 10^3 CFU/mL)
[19] = E. faecalis ATCC51299, inoculum 1.00104 (1 × 10^4 CFU/mL)
[20] = E. faecalis ATCC51299, inoculum 1.00105 (1 × 10^5 CFU/mL, standard)
[21] = E. faecalis ATCC51299, inoculum 1.00106 (1 × 10^6 CFU/mL)
[22] = E. faecalis ATCC51299, inoculum 1.00107 (1 × 10^7 CFU/mL)
[23] = S. aureus ATCC12598, inoculum 1.00101 (1 × 10^1 CFU/mL)
[24] = S. aureus ATCC12598, inoculum 1.00102 (1 × 10^2 CFU/mL)
[25] = S. aureus ATCC12598, inoculum 1.00103 (1 × 10^3 CFU/mL)
[26] = S. aureus ATCC12598, inoculum 1.00104 (1 × 10^4 CFU/mL)
[27] = S. aureus ATCC12598, inoculum 1.00105 (1 × 10^5 CFU/mL, standard)
[28] = S. aureus ATCC12598, inoculum 1.00106 (1 × 10^6 CFU/mL)
[29] = S. aureus ATCC12598, inoculum 1.00107 (1 × 10^7 CFU/mL)
[30] = S.aureus ATCC12598-MSSA, value in brackets

Clc1ccc(Cl)c(-c2ccc(/C=C/c3cc[n+](-c4ncccn4)cc3)o2)c1.F[P-](F)(F)(F)(F)F [PB5]
MBC [1]: 4 µg/mL
MBC ([1]; value in brackets): 7.40 µM
MIC ([1]; value in brackets): 0.93 µM
bactericidal/bacteriostatic activity [2]: strain-dependent bactericidal/bacteriostatic activity
MIC [3]: 32 µg/mL
MIC ([3]; value in brackets): 59.24 µM
MBC [4]: 128 µg/mL
MIC [4]: 4 µg/mL
MBC ([4]; value in brackets): 236.94 µM
MIC ([4]; value in brackets): 7.40 µM
MBC ([5]; E. faecalis ATCC51299-VRE): 128 µg/mL
MIC ([5]; E. faecalis ATCC51299-VRE): 4 mg/L
MBC [5, 15]: 236.94 µM
MIC [5, 15]: 7.40 µM
MIC [5, 16]: 0.5 mg/L and 0.93 μM
MIC [5, 17]: 1 mg/L and 1.85 μM
MIC [5, 18]: 1 mg/L and 1.85 μM
MIC [5, 19]: 1 mg/L and 1.85 μM
MIC [5, 20]: 4 mg/L and 7.40 μM
MIC [5, 21]: 4 mg/L and 7.40 μM
MIC [5, 22]: 4 mg/L and 7.40 μM
MBC [6]: 4 µg/mL
MIC [6]: 1 µg/mL
MBC ([6]; value in brackets): 7.40 µM
MIC ([6]; value in brackets): 1.85 µM
MIC [7]: > 128 µg/mL
MIC ([7]; value in brackets): > 236.94 µM
IC50 [8]: 3.9 µM
MIC [9]: > 128 µg/mL
MIC ([9]; value in brackets): > 236.94 µM
MIC [10, 23]: 0.03 mg/L and 0.06 μM
MIC [10, 24]: 0.03 mg/L and 0.06 μM
MIC [10, 25]: 0.06 μM and 0.03 mg/L
MIC [10, 26]: 0.06 mg/L and 0.12 μM
MIC [10, 27]: 4 mg/L and 7.40 μM
MIC [10, 28]: 4 mg/L and 7.40 μM
MIC [10, 29]: 8 mg/L and 14.81 μM
MBC ([10]; S.aureus ATCC12598-MSSA): 4 µg/mL
MIC ([10]; S.aureus ATCC12598-MSSA): 4 mg/L
MBC [10, 30]: 7.40 µM
MIC [10, 30]: 7.40 µM
MIC [11]: > 128 µg/mL
MIC ([11]; value in brackets): > 236.94 µM
MIC [12]: > 128 µg/mL
MIC ([12]; value in brackets): > 236.94 µM
MBC [13]: 4 µg/mL
MIC [13]: 2 µg/mL
MBC ([13]; value in brackets): 7.40 µM
MIC ([13]; value in brackets): 3.70 µM

C[n+]1ccc(/C=C/c2ccc(-c3cc(Cl)ccc3Cl)o2)cc1.F[P-](F)(F)(F)(F)F [PB6]
MIC [1]: 4 µg/mL
MIC ([1]; value in brackets): 8.73 µM
bactericidal/bacteriostatic activity [2]: strain-dependent bactericidal/bacteriostatic activity
MIC [3]: > 128 µg/mL
MIC ([3]; value in brackets): > 279.40 µM
MIC [4]: 32 µg/mL
MIC ([4]; value in brackets): 69.85 µM
MIC ([5]; E. faecalis ATCC51299-VRE): 32 mg/L
MIC [5, 15]: 69.85 µM
MIC [6]: 4 µg/mL
MIC ([6]; value in brackets): 8.73 µM
MIC [7]: > 128 µg/mL
MIC ([7]; value in brackets): > 279.40 µM
IC50 [8]: 6.79 µM and 6.8 µM
MIC [9]: 64 µg/mL
MIC ([10]; S.aureus ATCC12598-MSSA): 8 mg/L
MIC [10, 30]: 17.46 µM
MIC [11]: > 128 µg/mL
MIC ([11]; value in brackets): > 279.40 µM
MIC [12]: > 128 µg/mL
MIC ([12]; value in brackets): > 279.40 µM
MIC [13]: 4 µg/mL
MIC ([13]; value in brackets): 8.73 µM

CC[n+]1ccc2c(c1)CCCC2=Cc1ccc(-c2ccc(Cl)cc2)o1.[I-] [PB7]
MBC [1]: 32 µg/mL
MIC [1]: 2 µg/mL
MBC ([1]; value in brackets): 69.00 µM
MIC ([1]; value in brackets): 4.31 µM
MIC [3]: 32 µg/mL
MIC ([3]; value in brackets): 69.00 µM
MBC [4]: 128 µg/mL
MIC [4]: 8 µg/mL
MBC ([4]; value in brackets): 276.02 µM
MIC ([4]; value in brackets): 17.25 µM
MBC ([5]; E. faecalis ATCC51299-VRE): 128 µg/mL
MIC ([5]; E. faecalis ATCC51299-VRE): 8 mg/L
MBC [5, 15]: 276.02 µM
MIC [5, 15]: 17.25 µM
MIC [5, 16]: 8 mg/L and 17.25 μM
MIC [5, 17]: 8 mg/L and 17.25 μM
MIC [5, 18]: 8 mg/L and 17.25 μM
MIC [5, 19]: 8 mg/L and 17.25 μM
MIC [5, 20]: 8 mg/L and 17.25 μM
MIC [5, 21]: 16 mg/L and 34.50 μM
MIC [5, 22]: 32 mg/L and 69.00 μM
MBC [6]: 4 µg/mL
MIC [6]: 4 µg/mL
MBC ([6]; value in brackets): 8.63 µM
MIC ([6]; value in brackets): 8.63 µM
MIC [7]: 64 µg/mL
MIC ([7]; value in brackets): 138.01 µM
IC50 [8]: 1.36 µM
MIC [9]: 32 µg/mL
MIC ([9]; value in brackets): 69.00 µM
MIC [14]: ≤ 16 µg/mL
MIC [10, 23]: 2 mg/L and 4.31 μM
MIC [10, 24]: 4 mg/L and 8.63 μM
MIC [10, 25]: 8.63 μM and 4 mg/L
MIC [10, 26]: 4 mg/L and 8.63 μM
MIC [10, 27]: 8 mg/L and 17.25 μM
MIC [10, 28]: 8 mg/L and 17.25 μM
MIC [10, 29]: 32 mg/L and 69.00 μM
MBC ([10]; S.aureus ATCC12598-MSSA): 8 µg/mL
MIC ([10]; S.aureus ATCC12598-MSSA): 8 mg/L
MBC [10, 30]: 17.25 µM
MIC [10, 30]: 17.25 µM
MIC [11]: 128 µg/mL
MIC ([11]; value in brackets): 276.02 µM
MIC [12]: > 128 µg/mL
MIC ([12]; value in brackets): > 276.02 µM
MBC [13]: 16 µg/mL
MIC [13]: 16 µg/mL
MBC ([13]; value in brackets): 34.50 µM
MIC ([13]; value in brackets): 34.50 µM
